Test results: PubChem BioAssay (NCI)
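These data come from cells grown in 96-well plates and exposed to compound for 48 hours at five concentrations. Abbreviation: GI50, concentration required for 50% inhibition of growth. TGI marks complete inhibition of growth.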

Experiments:
Assay in all cases: NCI anticancer screen, dose series, 48 h
SF-268 CNS = tested on: SF-268 CNS
NCI-H460 lung = tested on: NCI-H460 lung
786-0 renal = tested on: 786-0 renal
UACC-257 melanoma = tested on: UACC-257 melanoma
T-47D breast = tested on: T-47D breast
HS 578T breast = tested on: HS 578T breast
SF-539 CNS = tested on: SF-539 CNS
UO-31 renal = tested on: UO-31 renal
M19-MEL melanoma = tested on: M19-MEL melanoma
SNB-78 CNS = tested on: SNB-78 CNS
DLD-1 colon = tested on: DLD-1 colon
DMS 273 small cell lung = tested on: DMS 273 small cell lung

Row | SMILES | GI50 (SF-268 CNS) [µM] | TGI (SF-268 CNS) [µM] | GI50 (NCI-H460 lung) [µM] | TGI (NCI-H460 lung) [µM] | GI50 (786-0 renal) [µM] | TGI (786-0 renal) [µM] | GI50 (UACC-257 melanoma) [µM] | TGI (UACC-257 melanoma) [µM] | GI50 (T-47D breast) [µM] | TGI (T-47D breast) [µM] | GI50 (HS 578T breast) [µM] | TGI (HS 578T breast) [µM] | GI50 (SF-539 CNS) [µM] | TGI (SF-539 CNS) [µM] | GI50 (UO-31 renal) [µM] | TGI (UO-31 renal) [µM] | TGI (M19-MEL melanoma) [µM] | TGI (SNB-78 CNS) [µM] | TGI (DLD-1 colon) [µM] | TGI (DMS 273 small cell lung) [µM]
1 | N#CSCC1CC(O)(c2ccccc2)CC(c2ccc(F)cc2)O1 (configuration not stated) | 1.65 | 3.3 | 2.08 | 4.34 | 1.61 | 3.27 | 3.29 | 11.9 | 1.78 | 4.98 | 1.96 | 4.6 | 1.96 | 3.66 | 1.82 | 6.03 |  |  |  | 
2 | COc1ccc2c(c1)C(=O)c1c-2c(Nc2ccc(Cl)cc2)nc2ccccc12 | > 100 | > 100 | > 100 | > 100 | 4.15 | 16 | 27.8 | > 100 | 17.8 | > 100 | 2.58 | 8.82 | 8.76 | 26.2 | 25.8 | > 100 |  |  |  | 
3 | O=C(O)/C(=C/C=C/c1ccccc1)c1csc(-c2nc(/C(=C\C=C\c3ccccc3)C(=O)O)cs2)n1 |  | > 100 |  | > 100 |  | 56.1 |  | > 100 |  |  |  |  |  | 51.2 |  | 59.6 | > 100 | 79.8 | 57.7 | 
4 | Cc1cc(N(CCNc2ccnc3cc(Cl)ccc23)Cc2ccco2)nc(Cl)n1 | 2.16 | 6.01 | 1.91 | 3.6 | 1.57 | 2.91 | 1.9 | 3.68 | 1.52 | 3.58 | 2.43 | 6.28 | 1.82 | 3.32 | 1.49 | 2.89 |  |  |  | 
5 | CCN(C(=O)c1cc(F)ccc1Oc1cncnc1N1CC2(CCN(CC3CCC(NS(=O)(=O)CC)CC3)CC2)C1)C(C)C (configuration not stated) | > 100 | > 100 | > 100 | > 100 | > 100 | > 100 | > 100 | > 100 | > 100 | > 100 | > 100 | > 100 | > 100 | > 100 | > 100 | > 100 |  |  |  | 
6 | O=C(Nc1ccccc1)NS(=O)(=O)c1ccc(-n2nc3c(c2-c2ccc(Cl)cc2)Cc2ccccc2-3)cc1 | 14.8 | 88.2 | 22.3 | 85.1 | 27.5 | > 100 | 37.1 | > 100 | 49.9 | > 100 | 19.6 | 82.3 | 18.8 | 45.6 | 24.5 | > 100 |  |  |  | 
7 | COc1ccc(/C=c2\sc3n(c2=O)C(N)=C(C#N)C(c2ccc(OC)cc2)C=3c2nc3ccccc3[nH]2)cc1 (configuration not stated) |  | > 100 |  | 40.9 |  | > 100 |  | 78.8 |  |  |  |  |  |  |  | > 100 | 63.8 |  |  | > 100
8 | C[C@@H](CO)[C@@H]1CCC=C2CC[C@]3(C)[C@H](CC[C@@H]4[C@@]5(C)CCCNC(C)(C)[C@@H]5CC[C@]43C)[C@H]21 | 4.48 | 19.5 | 1.81 | 3.39 | 1.93 | 3.82 | 2.59 | 7.08 | 2.38 | 7.77 | 2.08 | 5.19 | 3.48 | 14.6 | 2.21 | 6.8 |  |  |  | 
